Results: patent US11465986B2, “Crystal form of c-MET inhibitor and salt form thereof and preparation method therefor” (FUJIAN AKEYLINK BIOTECHNOLOGY CO., LTD., priority 2018, dated 2022)

Assay: Stability test of the crystal forms (HPLC impurity content)
Assay type: physicochemical
Details: for Stability, conclusion in words: stress conditions (high temperature, high humidity, light)
Method: The method for High Performance Liquid Chromatograph (HPLC) in the present disclosure
Instrument Model: Agilent 1200 High Performance Liquid Chromatograph
The analysis method is as follows: […]
About 10 mg of the crystal form B of the compound represented by formula (II) was weighted and placed under stability test conditions, and the samples were collected and analyzed after 5 days, 10 days, and 1 month.
About 10 mg of the crystal form C of the compound represented by formula (III) was weighted and placed under stability test conditions, and the samples were collected and analyzed after 5 days, 10 days, and 1 month respectively.

[1] = form C, Light (total illuminance = 1.2 × 106 Lux · hr/near ultraviolet = 200 w · hr/m^2)
[2] = form B, 40° C. relative humidity 75%, 1 month
[3] = form B, 40° C. relative humidity 75%, 10 days
[4] = form B, 60° C. relative humidity 75%, 1 month
[5] = form B, 60° C. relative humidity 75%, 10 days
[6] = form B, Light (total illuminance = 1.2 × 106 Lux · hr/near ultraviolet = 200 w · hr/m^2)
[7] = form B, Relative humidity 92.5%, 1 month
[8] = form B, Relative humidity 92.5%, 5 days
[9] = form B, Relative humidity 92.5%, 10 days

## C[C@H](c1cccc(-c2ncc(OCC3CCN(C)CC3)cn2)c1)n1cc(-c2cc(C#N)ccn2)cc(F)c1=O [crystal form C of the compound represented by formula (III)]
Form C, 0 day
  Total impurities: 2.22%
Form C, 40° C. Relative humidity 75%, 1 month
  Total impurities: 2.31%
Form C, 40° C. Relative humidity 75%, 10 days
  Total impurities: 2.26%
Form C, 60° C. Relative humidity 75%, 1 month
  Total impurities: 12.75%
Form C, 60° C. Relative humidity 75%, 10 days
  Total impurities: 6.04%
Form C, 60° C., 1 month
  Total impurities: 2.35%
Form C, 60° C., 5 days
  Total impurities: 2.27%
Form C, 60° C., 10 days
  Total impurities: 2.35%
[1]
  Impurity content, relative retention time 0.45 (column inferred): 0.05%
  Impurity content, relative retention time 0.7 (column inferred): 0.12%
  Impurity content, relative retention time 0.75 (column inferred): 0.05%
  Impurity content, relative retention time 0.87 or 0.94 (column inferred): 0.24%
  Total impurities: 2.94%
Form C, Relative humidity 92.5%, 1 month
  Total impurities: 2.28%
Form C, Relative humidity 92.5%, 5 days
  Total impurities: 2.29%
Form C, Relative humidity 92.5%, 10 days
  Total impurities: 2.22%
  Stability, conclusion in words: relatively stable under high temperature and high humidity conditions

## C[C@H](c1cccc(-c2ncc(OCC3CCN(C)CC3)cn2)c1)n1cc(-c2cc(C#N)ccn2)cc(F)c1=O.Cl
Form B, 0 day
  Impurity content, relative retention time 0.77: 0.05%
  Impurity content, relative retention time 1.04: 2.18%
  Total impurities: 2.24%
[2]
  Impurity content, relative retention time 0.77: 0.23%
  Impurity content, relative retention time 1.04: 1.95%
  Total impurities: 2.18%
[3]
  Impurity content, relative retention time 0.77: 0.18%
  Impurity content, relative retention time 1.04: 2.02%
  Total impurities: 2.2%
[4]
  Impurity content, relative retention time 0.77: 0.36%
  Impurity content, relative retention time 1.04: 1.76%
  Total impurities: 2.12%
[5]
  Impurity content, relative retention time 0.77: 0.42%
  Impurity content, relative retention time 1.04: 1.72%
  Total impurities: 2.13%
Form B, 60° C., 1 month
  Impurity content, relative retention time 0.77: 0.05%
  Impurity content, relative retention time 1.04: 2.27%
  Impurity content, relative retention time 1.4: 0.28%
  Impurity content, relative retention time 1.41: 0.07%
  Impurity content, relative retention time 1.43: 0.06%
  Impurity content, relative retention time 1.49: 0.05%
  Total impurities: 2.78%
Form B, 60° C., 5 days
  Impurity content, relative retention time 0.77: 0.06%
  Impurity content, relative retention time 1.04: 2.18%
  Impurity content, relative retention time 1.4: 0.06%
  Total impurities: 2.3%
Form B, 60° C., 10 days
  Impurity content, relative retention time 1.04: 2.16%
  Impurity content, relative retention time 1.4: 0.12%
  Total impurities: 2.29%
[6]
  Impurity content, relative retention time not resolvable (one of 1.4 to 1.49): 0.17%
  Total impurities: 2.39%
[7]
  Impurity content, relative retention time 0.77: 0.2%
  Impurity content, relative retention time 1.04: 2.03%
  Total impurities: 2.23%
[8]
  Impurity content, relative retention time 0.77: 0.13%
  Impurity content, relative retention time 1.04: 2.08%
  Total impurities: 2.21%
[9]
  Impurity content, relative retention time 0.77: 0.16%
  Impurity content, relative retention time 1.04: 2.04%
  Total impurities: 2.2%
  Stability, conclusion in words: stable under high temperature and light conditions
